The values below come from PubChem BioAssay AID264 (DTP/NCI, 2004).

SMILES strings stand for the structures. Values joined by “and” are separate entries in the source; they are usually repeats but may differ in a detail not shown here. Equal values may be shown once. Records with an inconclusive call do not appear.

In this assay the test system is nude mice, LX-1 lung xenograft intrarenal, tumor weight T/C. The assay is described as follows: NCI In Vivo Anticancer Drug Screen. Data for tumor model Human Lung LX-1 Xenograft (intrarenal inoculation) in NU/NU Swiss (nude) mice. The conditions noted are these: endpoint: mean tumor weight change, higher = larger tumour. Put shortly:
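In vivo, transplantable tumor; compound vs vehicle arms; tumor size measured; value = T/C.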

Where [1] appears, read: dose: 7.5 mg/kg/injection, schedule: Q04DX003 (sc), vehicle: saline with Tween-80.
Setting [2] is: dose: 15.0 mg/kg/injection, schedule: Q04DX003 (sc), vehicle: saline with Tween-80.
[3] abbreviates: dose: 30.0 mg/kg/injection, schedule: Q04DX003 (sc), vehicle: saline with Tween-80.
Where [4] appears, read: dose: 300.0 mg/kg/injection, schedule: Q04DX003 (sc), vehicle: Klucel (hydroxypropylcellulose) (HPC).
[5] abbreviates: dose: 300.0 mg/kg/injection, schedule: Q04DX003 (sc), vehicle: saline with Tween-80.
The mark [6] stands for this setting: dose: 600.0 mg/kg/injection, schedule: Q04DX003 (sc), vehicle: saline with Tween-80.
Setting [7] is: dose: 75.0 mg/kg/injection, schedule: Q04DX003 (sc), vehicle: saline with Tween-80.
Where [8] appears, read: dose: 150.0 mg/kg/injection, schedule: Q04DX003 (sc), vehicle: saline with Tween-80.

`CC(=O)OC(C)C1C2=C(C(=O)CC1(C)O)C(=O)c1c(ccc(-c3ccc4c(c3O)C(=O)C3=C(C4=O)C(C(C)OC(C)=O)C(C)(O)CC3=O)c1O)C2=O` (stereo unspecified): the T/C (dose: 3.75 mg/kg/injection, schedule: Q04DX003 (sc), vehicle: saline with Tween-80) is 45 % of control; the T/C under setting [1] is 86 % of control; the T/C under setting [2] was 87 % of control; the T/C under setting [3] is 62 % of control and 78 % of control.

`COc1cc2cc3cc4cc(OC)c(OC)cc4c(C)[n+]3cc2cc1OC` (tested in a mixture with another compound): the T/C was 105 % of control (dose: 300.0 mg/kg/injection, schedule: Q04DX003 (sc), vehicle: suspension in saline); 71 % of control (dose: 600.0 mg/kg/injection, schedule: Q04DX003 (sc), vehicle: suspension in saline); 71 % of control (dose: 1200.0 mg/kg/injection, schedule: Q04DX003 (sc), vehicle: suspension in saline); 53 % of control (dose: 2400.0 mg/kg/injection, schedule: Q04DX003 (sc), vehicle: suspension in saline).

`CN(C)c1ccc(C(=C2C=CC(=[N+](C)C)C=C2)c2ccc(N(C)C)cc2)cc1` (tested in a mixture with another compound): the T/C under setting [1] was 76 % of control; the T/C under setting [2] is 59 % of control; the T/C under setting [3] was 98 % of control; the T/C (dose: 60.0 mg/kg/injection, schedule: Q04DX003 (sc), vehicle: saline with Tween-80) is 65 % of control.

With `Clc1ccc(C(c2ccccc2Cl)C(Cl)Cl)cc1` (stereo unspecified), the T/C (dose: 400.0 mg/kg/injection, schedule: Q01DX010 (sc), vehicle: saline with Tween-80) is 80 % of control; the T/C (dose: 800.0 mg/kg/injection, schedule: Q01DX010 (sc), vehicle: saline with Tween-80) was 40 % of control; the T/C (dose: 800.0 mg/kg/injection, schedule: Q01DX010 (sc), vehicle: saline) was 69 % of control; the T/C (dose: 1600.0 mg/kg/injection, schedule: Q01DX010 (sc), vehicle: saline with Tween-80) was 56 % of control; the T/C (dose: 1600.0 mg/kg/injection, schedule: Q01DX010 (sc), vehicle: saline) was 55 % of control; the T/C (dose: 3200.0 mg/kg/injection, schedule: Q01DX010 (sc), vehicle: saline with Tween-80) is 24 % of control. Besides, the T/C was 80 % of control (dose: 3200.0 mg/kg/injection, schedule: Q01DX010 (sc), vehicle: saline) and 73 % of control (dose: 6400.0 mg/kg/injection, schedule: Q01DX010 (sc), vehicle: saline).

Turning to `CCC1OCC(C(Cl)CCl)O1` (stereo unspecified), the T/C is, setting by setting: under setting [4], 115 % of control; (dose: 600.0 mg/kg/injection, schedule: Q04DX003 (sc), vehicle: Klucel (hydroxypropylcellulose) (HPC)) 88 % of control; (dose: 1200.0 mg/kg/injection, schedule: Q04DX003 (sc), vehicle: Klucel (hydroxypropylcellulose) (HPC)) 26 % of control.

Turning to `CCCCN(CCCC)C(Cl)=Nc1ccccc1`, the T/C (dose: 400.0 mg/kg/injection, schedule: Q04DX003 (sc), vehicle: other) was 116 % of control.

For the compound `NC(=S)N/N=C/c1ccc(OC(=O)COc2ccccc2)cn1`, the T/C is 77 % of control under setting [5]; 73 % of control under setting [6]; 37 % of control (dose: 1200.0 mg/kg/injection, schedule: Q04DX003 (sc), vehicle: saline with Tween-80).

In the case of `COC(=O)NC1C(C)OC(OC2C/C=C(/C)C3C=CC4C(OC5CC(OC6CCC(OC7CC(O)C(OC8CCC(O)C(C)O8)C(C)O7)C(C)O6)C(OC(C)=O)C(C)O5)C(C)CC(C)C4C3(C)/C(O)=C3/C(=O)OC4(CC(C=O)=CC(O)C4/C=C\2C)C3=O)CC1(C)[N+](=O)[O-]` (stereo unspecified), the T/C (dose: 12.5 mg/kg/injection, schedule: Q04DX003 (sc), vehicle: other) is 63 % of control; the T/C (dose: 25.0 mg/kg/injection, schedule: Q04DX003 (sc), vehicle: other) is 75 % of control; the T/C (dose: 50.0 mg/kg/injection, schedule: Q04DX003 (sc), vehicle: other) was 100 % of control; the T/C (dose: 100.0 mg/kg/injection, schedule: Q04DX003 (sc), vehicle: other) is 93 % of control.

In the case of `CC(=O)Oc1ccc[nH]c1=O`, the T/C is 87 % of control (dose: 400.0 mg/kg/injection, schedule: Q04DX003 (sc), vehicle: saline with Tween-80) and 91 % of control (dose: 800.0 mg/kg/injection, schedule: Q04DX003 (sc), vehicle: saline with Tween-80).

For `C[Si](C)(C)O/C=C1/CCOC1=O`, the T/C is, setting by setting: (dose: 50.0 mg/kg/injection, schedule: Q04DX003 (sc), vehicle: suspension in saline) 115 % of control; (dose: 100.0 mg/kg/injection, schedule: Q04DX003 (sc), vehicle: suspension in saline) 122 % of control; (dose: 200.0 mg/kg/injection, schedule: Q04DX003 (sc), vehicle: suspension in saline) 107 % of control; (dose: 400.0 mg/kg/injection, schedule: Q04DX003 (sc), vehicle: suspension in saline) 106 % of control.

As to `c1ccc2c(c1)-c1ccccc1C1NC21` (stereo unspecified), the T/C reads like this: (dose: 37.5 mg/kg/injection, schedule: Q04DX003 (sc), vehicle: saline with Tween-80) 82 % of control; under setting [7], 56 % of control; under setting [8], 45 % of control.

As to `O=C1C(NCC(O)CO)=C(N2CC2)C(=O)C(NCC(O)CO)=C1N1CC1` (stereo unspecified), the T/C (dose: 4.0 mg/kg/injection, schedule: Q04DX003 (ip), vehicle: saline) was 102 % of control; the T/C (dose: 8.0 mg/kg/injection, schedule: Q04DX003 (ip), vehicle: saline) was 84 % of control; the T/C (dose: 16.0 mg/kg/injection, schedule: Q04DX003 (ip), vehicle: saline) is 61 % of control; the T/C (dose: 32.0 mg/kg/injection, schedule: Q04DX003 (ip), vehicle: saline) was 50 % of control.

Regarding `CC[C@@H](C)[C@@H]1NC(=O)C(NC(=O)C(CC(C)C)N(C)C(=O)C2CCCN2C(=O)C(C)O)C(C)OC(=O)C(Cc2ccc(OC)cc2)N(C)C(=O)C2CCCN2C(=O)C(CC(C)C)NC(=O)C(C)C(=O)C(C(C)C)OC(=O)C[C@H]1O` (stereo partly specified), the T/C runs as follows: (dose: 75.0 micrograms/kg/injection, schedule: Q04DX003 (sc), vehicle: distilled water + alcohol) 28 % of control; (dose: 600.0 micrograms/kg/injection, schedule: Q04DX003 (sc), vehicle: distilled water + alcohol) 85 % of control and 87 % of control; (dose: 1200.0 micrograms/kg/injection, schedule: Q04DX003 (sc), vehicle: distilled water + alcohol) 87 % of control.

Regarding `COc1ccc(C(N)=O)cc1N=NN(C)C`, the T/C reads like this: (dose: 12.5 mg/kg/injection, schedule: Q01DX010 (sc), vehicle: Klucel (hydroxypropylcellulose) (HPC)) 9 % of control; (dose: 25.0 mg/kg/injection, schedule: Q01DX010 (sc), vehicle: Klucel (hydroxypropylcellulose) (HPC)) 6 % of control and 15 % of control; (dose: 37.5 mg/kg/injection, schedule: Q04DX003 (sc), vehicle: Klucel (hydroxypropylcellulose) (HPC)) 23 % of control; (dose: 50.0 mg/kg/injection, schedule: Q01DX010 (sc), vehicle: Klucel (hydroxypropylcellulose) (HPC)) -25 % of control; (dose: 75.0 mg/kg/injection, schedule: Q04DX003 (sc), vehicle: Klucel (hydroxypropylcellulose) (HPC)) 13 % of control; (dose: 150.0 mg/kg/injection, schedule: Q04DX003 (sc), vehicle: Klucel (hydroxypropylcellulose) (HPC)) 8 % of control. Moreover, the T/C under setting [4] is 8 % of control.

Consider `O=S1(=O)C=C(c2ccccc2)C(c2ccccc2)=C1`, for which the T/C runs as follows: under setting [7], 59 % of control; under setting [8], 81 % of control; under setting [5], 59 % of control; under setting [6], 71 % of control.

With `Cc1c2cc[n+](C)cc2c(C)c2c1[nH]c1ccc(O)cc12`, the T/C (dose: 1.5 mg/kg/injection, schedule: Q04DX003 (sc), vehicle: water) is 151 % of control.

As to `Cc1cc(SCC(=O)c2ccc(Br)cc2)cc(C)[o+]1`, the T/C (dose: 50.0 mg/kg/injection, schedule: Q01DX010 (sc), vehicle: saline) is 111 % of control and the T/C (dose: 200.0 mg/kg/injection, schedule: Q01DX010 (sc), vehicle: saline) was 116 % of control.
